Laboratory results taken from paper PMC4109680, “Identification and Preclinical Pharmacology of the γ-Secretase Modulator BMS-869780” (International Journal of Alzheimer's Disease, 2014).

Test system: rat brain Aβ
Experiment: Rat brain Aβ peptides after oral dose (4-plex immunoassay and Aβ1-x)
Format: in vivo
Conditions: 24 hours
Description: IC50 determinations for Aβ1-42 and Aβ1-40 in H4-APPsw cultures in 384-well format were determined using homogeneous time-resolved fluorescence immunoassays as previously described. The principle of these assays is illustrated in Figures 1(c) and 1(d). In other experiments using H4-APPsw cultures, Aβ was quantified by ELISA; for Aβ1-42 the combination of monoclonal antibodies was 26D6 and 565-HRP; for Aβ1-40 it was TSD and 26D6-HRP, and for Aβ1-x it was 4G8 and 26D6-HRP. In some experiments a novel 4-plex Aβ electrochemiluminescence immunoassay was used (Mesoscale Discovery catalog number N45ZA-1). Briefly, the 4-plex was carried out in 96-well format, with 4 separate spots of capture antibodies in each well. The 96-well plates were prepared by the manufacturer, with spots of monoclonal antibodies for Aβ1-42, Aβ1-40, and Aβ1-38, and an additional fourth spot of streptavidin in each well. Plates were initially incubated with blocking buffer (5% BSA in phosphate buffered saline, 200 μL per well) for 2 hours at ambient temperature and then with D2A6H-biotin conjugate (50 ng/mL in 1% BSA, phosphate buffered saline, 25 μL per well) for 1 hour. Plates were then rinsed with phosphate buffered saline before addition of experimental samples for determination of Aβ1-42, Aβ1-40, Aβ1-38, and Aβ1-37 levels, following the manufacturer's instructions as for the Aβ 3-plex kit (catalog number K15148E-1). Rat brain extracts for use in the 4-plex assay were made in 0.2% diethylamine, as previously described. For detection of rat Aβ peptides in the 4-plex (Figure 5), 252Q6-sulfo-tag conjugate was used, and for detection of human Aβ peptides from cell cultures 6E10-sulfo-tag conjugate was used. For Aβ in transiently transfected PS1/PS2 dKO fibroblasts, Aβ1-42 was quantified using an ELISA kit (WACO), and Aβ1-40 was quantified by ELISA as described above for H4-APPsw cultures. For triple transgenic mice (3xTg; [63]), human transgenic Aβ1-42 was assayed in brain homogenates using an ELISA kit (WACO). For the rat and mouse experiments illustrated in Figures 7 and 8, brain samples were prepared by solid phase extraction, and endogenous rat brain Aβ1-42 and Aβ1-40 were quantified by ELISA as previously described for wild type mice. For brain extracts made using solid phase extraction, calibration of Aβ was relative, based on the approximately linear response of the assay in the range tested. For brain extracts made in 0.2% diethylamine, Aβ1-42, Aβ1-40, Aβ1-38, and Aβ1-37 concentrations in brain and cell culture samples were determined by fitting the results of immunoassays against calibration curves derived from a range of dilutions of the corresponding synthetic peptides on each assay plate using a quadratic curve fit (Graphpad Prizm 5.0). Aβ1-x was calibrated in the same way against synthetic Aβ1-40 peptide. Results were expressed in units of pM, corrected for sample dilution.
Rats were given oral doses of BMS-869780, and levels of brain Aβ, βCTF, and αCTF were determined 24 hours later. For comparison, BMS-698861 was dosed in a separate experiment and samples were taken 5 hours later. […] (c) Rat brain βCTF was detected by western blotting of immunoprecipitates from samples of the same rat brains used for Aβ determinations. […] (e) and (f) quantification of western blots shown in (c) and (d), respectively, expressed relative to percent of average level of CTF in vehicle-treated rats. […]

`COc1cc(Nc2nc3n(n2)CCCC[C@H]3c2ccc(F)cc2)ccc1-n1cnc(Cl)c1` [BMS-869780] was tested, and the “rat brain Aβ1-37 and Aβ1-38” value (oral doses 1.9-235 mg/kg) was “increased”, the “rat brain Aβ1-40 and Aβ1-42” value (oral doses 1.9-235 mg/kg) was “decreased” and the “rat brain Aβ1-x” value (oral doses) was “no significant decrease”. For the same molecule, the “sum total of brain Aβ1-40, Aβ1-42, Aβ1-38 and Aβ1-37” value (oral doses) was “no significant change in overall Aβ levels”.
